Results as given in patent publication US10729691B2, “Treatment of infectious diseases with glucose uptake inhibitors” (Kadmon Corporation LLC, priority 2015, dated 2020).
pIC50: −log10 of the molar value. Where a name gives a salt, the structure may show the parent alone.

Tested on: P. falciparum-infected RBCs
Experiment: Glycolysis IC50 / lactate excretion assay in P. falciparum-infected RBCs
Assay type: cell-based
Conditions: Plasmodium falciparum
Method: The cultures were harvested and DNA quantitated using the standard Sybr Green I fluorescence assay. […] The culture medium was harvested and extracellular lactic acid was quantified by LC-MS.
P. falciparum (HB-3 strain) cultures were maintained in standard culture conditions. […] Parasites were grown in O+ donor blood, 2% hematocrit.
Parasite cultures were seeded in 96-well plates (1% hematocrit, 1-2% starting parasitemia, 100 μL total volume) with varying concentrations of the test compounds in a final concentration of 0.1% DMSO. Plates were cultured for 48 hours before harvesting the culture medium for LC-MS analysis. At harvest, thin smears were taken and examined microscopically to observe any alterations in parasite morphology.
Culture medium samples were diluted in 9 volumes of methanol containing U-^13C-glucose and 1-^13C-lactate (final concentration 0.25 mM each). The samples were clarified by centrifugation at 13,000 RCF for 10 minutes. […] Mobile phase A was acetonitrile, and mobile phase B was 20 mM ammonium acetate (pH 9.4).
The sample was analyzed on an Exactive mass spectrometer (Thermo Scientific) to determine the chromatographic peak areas the analytes and internal standards. Glucose and lactate were quantified by taking the ratio of the unlabeled peak area to the area of the isotope-labeled standard.

Row | SMILES | pIC50
1 | CC(C)NC(=O)COc1cccc(-c2nc3c(c(Nc4ccc(-c5cn[nH]c5)cc4)n2)COC3)c1 [Example 2, 2-(3-(4-((4-(1H-pyrazol-4-yl)phenyl)amino)-5,7-dihydrofuro[3,4-d]pyrimidin-2-yl)phenoxy)-N-isopropylacetamide] | 6.60 to 7.00
2 | O=C(COc1cccc(-c2nc(Nc3ccc(-c4cn[nH]c4)cc3)c3sccc3n2)c1)NC1CC1 [Example 5] | 6.30 to 6.60
3 | O=C(COc1cccc(-c2nc3c(c(Nc4ccc(-c5cn[nH]c5)cc4)n2)COC3)c1)NC1CCC1 [Example 12] | 6.60 to 7.00
4 | O=C(COc1cccc(-c2nc3c(c(Nc4ccc(-c5cn[nH]c5)cc4)n2)COC3)c1)NC1CCCC1 [Example 13] | 6.60 to 7.00
5 | CC(C)CNC(=O)COc1cccc(-c2nc(Nc3ccc(-c4cn[nH]c4)cc3)c3ncccc3n2)c1 [Example 14, 2-(3-(4-((4-(1H-pyrazol-4-yl)phenyl)amino)pyrido[3,2-d]pyrimidin-2-yl)phenoxy)-N-isobutylacetamide] | 6.30 to 6.60
6 | Cn1ncc2c(Nc3ccc(-c4cn[nH]c4)cc3)nc(-c3cccc(OCC(=O)NC4CCC4)c3)nc21 [Example 15, 2-(3-(4-((4-(1H-pyrazol-4-yl)phenyl)amino)-1-methyl-1H-pyrazolo[3,4-d]pyrimidin-6-yl)phenoxy)-N-cyclobutylacetamide] | 6.60 to 7.00
7 | Cn1ncc2c(Nc3ccc(-c4cn[nH]c4)cc3)nc(-c3cccc(OCC(=O)NC4CCCC4)c3)nc21 [Example 17, 2-(3-(4-((4-(1H-pyrazol-4-yl)phenyl)amino)-1-methyl-1H-pyrazolo[3,4-d]pyrimidin-6-yl)phenoxy)-N-cyclopentylacetamide] | 6.60 to 7.00
8 | CC(C)CNC(=O)COc1cccc(-c2nc(Nc3ccc(-c4cn[nH]c4)cc3)c3cnn(C)c3n2)c1 [Example 18, 2-(3-(4-((4-(1H-pyrazol-4-yl)phenyl)amino)-1-methyl-1H-pyrazolo[3,4-d]pyrimidin-6-yl)phenoxy)-N-isobutylacetamide] | 7.00 to 8.00
9 | CC(C)NC(=O)COc1cccc(-c2nc(Nc3ccc(-c4cn[nH]c4)cc3)c3ccncc3n2)c1 [Example 19, 2-(3-(4-((4-(1H-pyrazol-4-yl)phenyl)amino)pyrido[3,4-d]pyrimidin-2-yl)phenoxy)-N-isopropylacetamide] | 6.60 to 7.00
10 | O=C(COc1cccc(-c2nc(Nc3ccc(-c4cn[nH]c4)cc3)c3ccncc3n2)c1)NC1CCC1 [Example 20, 2-(3-(4-((4-(1H-pyrazol-4-yl)phenyl)amino)pyrido[3,4-d]pyrimidin-2-yl)phenoxy)-N-cyclobutylacetamide] | 6.60 to 7.00
11 | CC(C)NC(=O)COc1cccc(-c2nc(Nc3ccc(-c4cn[nH]c4)cc3)c3ncsc3n2)c1 [Example 22, 2-(3-(7-((4-(1H-pyrazol-4-yl)phenyl)amino)thiazolo[5,4-d]pyrimidin-5-yl)phenoxy)-N-isopropylacetamide] | 6.30 to 6.60
12 | O=C(COc1cccc(-c2nc(Nc3ccc(-c4cn[nH]c4)cc3)c3ncsc3n2)c1)NC1CCC1 [Example 23, 2-(3-(7-((4-(1H-pyrazol-4-yl)phenyl)amino)thiazolo[5,4-d]pyrimidin-5-yl)phenoxy)-N-cyclobutylacetamide] | 6.30 to 6.60
13 | O=C(COc1cccc(-c2nc(Nc3ccc(-c4cn[nH]c4)cc3)c3ncsc3n2)c1)NC1CCCC1 [Example 24, 2-(3-(7-((4-(1H-pyrazol-4-yl)phenyl)amino)thiazolo[5,4-d]pyrimidin-5-yl)phenoxy)-N-cyclopentylacetamide] | 6.30 to 6.60
14 | CC(C)CNC(=O)COc1cccc(-c2nc(Nc3ccc(-c4cn[nH]c4)cc3)c3ncsc3n2)c1 [Example 25, 2-(3-(7-((4-(1H-pyrazol-4-yl)phenyl)amino)thiazolo[5,4-d]pyrimidin-5-yl)phenoxy)-N-isobutylacetamide] | 6.30 to 6.60
15 | CC(C)(C)NC(=O)COc1cccc(-c2nc3c(c(Nc4ccc(-c5cn[nH]c5)cc4)n2)COC3)c1 [Example 26, 2-(3-(4-((4-(1H-pyrazol-4-yl)phenyl)amino)-5,7-dihydrofuro[3,4-d]pyrimidin-2-yl)phenoxy)-N-(tert-butyl)acetamide dihydrochloride] | 6.60 to 7.00
16 | CC(C)CNC(=O)COc1cccc(-c2nc3c(c(Nc4ccc(-c5cn[nH]c5)cc4)n2)COC3)c1 [Example 29, 2-(3-(4-((4-(1H-pyrazol-4-yl)phenyl)amino)-5,7-dihydrofuro[3,4-d]pyrimidin-2-yl)phenoxy)-N-isobutylacetamide] | 6.60 to 7.00
17 | CC(C)(C)CNC(=O)COc1cccc(-c2nc3c(c(Nc4ccc(-c5cn[nH]c5)cc4)n2)COC3)c1 [Example 30, 2-(3-(4-((4-(1H-pyrazol-4-yl)phenyl)amino)-5,7-dihydrofuro[3,4-d]pyrimidin-2-yl)phenoxy)-N-neopentylacetamide] | 6.60 to 7.00
18 | CC(C)NC(=O)COc1cccc(-c2nc3c(c(Nc4ccc(-c5cn[nH]c5)cc4)n2)CSC3)c1 [Example 34, 2-(3-(4-((4-(1H-pyrazol-4-yl)phenyl)amino)-5,7-dihydrothieno[3,4-d]pyrimidin-2-yl)phenoxy)-N-isopropylacetamide] | 6.00 to 6.30
19 | O=C(COc1cccc(-c2nc3c(c(Nc4ccc(-c5cn[nH]c5)cc4)n2)CSC3)c1)NC1CCCC1 [Example 36, 2-(3-(4-((4-(1H-pyrazol-4-yl)phenyl)amino)-5,7-dihydrothieno[3,4-d]pyrimidin-2-yl)phenoxy)-N-cyclopentylacetamide] | 6.00 to 6.30
20 | CC(C)NC(=O)COc1cccc(-c2nc3c(c(Nc4ccc(-c5cn[nH]c5)cc4)n2)COCC3)c1 [Example 40, 2-(3-(4-((4-(1H-pyrazol-4-yl)phenyl)amino)-7,8-dihydro-5H-pyrano[4,3-d]pyrimidin-2-yl)phenoxy)-N-isopropylacetamide] | 7.00 to 8.00
21 | CC(C)(C)NC(=O)COc1cccc(-c2nc(Nc3ccc(-c4cn[nH]c4)cc3)c3sccc3n2)c1 [Example 42, 2-(3-(4-((4-(1H-pyrazol-4-yl)phenyl)amino)thieno[3,2-d]pyrimidin-2-yl)phenoxy)-N-(tert-butyl)acetamide] | 6.60 to 7.00
22 | CCC(C)(C)NC(=O)COc1cccc(-c2nc(Nc3ccc(-c4cn[nH]c4)cc3)c3sccc3n2)c1 [Example 43, 2-(3-(4-((4-(1H-pyrazol-4-yl)phenyl)amino)thieno[3,2-d]pyrimidin-2-yl)phenoxy)-N-(tert-pentyl)acetamide] | 7.00 to 8.00
23 | CC(=O)N1CCc2nc(-c3cccc(OCC(=O)NC(C)C)c3)nc(Nc3ccc(-c4cn[nH]c4)cc3)c2C1 [Example 44, 2-(3-(4-((4-(1H-pyrazol-4-yl)phenyl)amino)-6-acetyl-5,6,7,8-tetrahydropyrido[4,3-d]pyrimidin-2-yl)phenoxy)-N-isopropylacetamide] | 7.00 to 8.00

Second part, the compound after the results:

Row | pIC50 | SMILES
24 | 7.00 to 8.00 | CC(C)NC(=O)COc1cccc(-c2nc3c(c(Nc4ccc(-c5cn[nH]c5)cc4)n2)CN(C(=O)C(C)C)CC3)c1 [Example 1, 2-(3-(4-((4-(1H-pyrazol-4-yl)phenyl)amino)-6-isobutyryl-5,6,7,8-tetrahydropyrido[4,3-d]pyrimidin-2-yl)phenoxy)-N-isopropylacetamide]
25 | 6.30 to 6.60 | O=C(COc1cccc(-c2nc(Nc3ccc(-c4cn[nH]c4)cc3)c3occc3n2)c1)NC1CCCC1 [Example 9]
26 | 6.60 to 7.00 | Cn1cnc2c(Nc3ccc(-c4cn[nH]c4)cc3)nc(-c3cccc(OCC(=O)NC4CCC4)c3)nc21 [Example 11]
27 | 7.00 to 8.00 | CC(C)NC(=O)COc1cccc(-c2nc(Nc3ccc(-c4cn[nH]c4)cc3)c3cnn(C)c3n2)c1 [Example 16, 2-(3-(4-((4-(1H-pyrazol-4-yl)phenyl)amino)-1-methyl-1H-pyrazolo[3,4-d]pyrimidin-6-yl)phenoxy)-N-isopropylacetamide]
28 | 6.60 to 7.00 | O=C(COc1cccc(-c2nc(Nc3ccc(-c4cn[nH]c4)cc3)c3ccncc3n2)c1)NC1CCCC1 [Example 21, 2-(3-(4-((4-(1H-pyrazol-4-yl)phenyl)amino)pyrido[3,4-d]pyrimidin-2-yl)phenoxy)-N-cyclopentylacetamide]
29 | 7.00 to 8.00 | CCC(CC)NC(=O)COc1cccc(-c2nc3c(c(Nc4ccc(-c5cn[nH]c5)cc4)n2)COC3)c1 [Example 27, 2-(3-(4-((4-(1H-pyrazol-4-yl)phenyl)amino)-5,7-dihydrofuro[3,4-d]pyrimidin-2-yl)phenoxy)-N-(pentan-3-yl)acetamide dihydrochloride]
30 | 7.00 to 8.00 | CCC(C)NC(=O)COc1cccc(-c2nc3c(c(Nc4ccc(-c5cn[nH]c5)cc4)n2)COC3)c1 (stereo not drawn) [Example 28, 2-(3-(4-((4-(1H-pyrazol-4-yl)phenyl)amino)-5,7-dihydrofuro[3,4-d]pyrimidin-2-yl)phenoxy)-N-(sec-butyl)acetamide]
31 | 6.30 to 6.60 | O=C(COc1cccc(-c2nc3c(c(Nc4ccc(-c5cn[nH]c5)cc4)n2)COC3)c1)NC1CC(F)(F)C1 [Example 32, 2-(3-(4-((4-(1H-pyrazol-4-yl)phenyl)amino)-5,7-dihydrofuro[3,4-d]pyrimidin-2-yl)phenoxy)-N-(3,3-difluorocyclobutyl)acetamide]
32 | 6.00 to 6.30 | O=C(COc1cccc(-c2nc3c(c(Nc4ccc(-c5cn[nH]c5)cc4)n2)CSC3)c1)NC1CCC1 [Example 35, 2-(3-(4-((4-(1H-pyrazol-4-yl)phenyl)amino)-5,7-dihydrothieno[3,4-d]pyrimidin-2-yl)phenoxy)-N-cyclobutylacetamide]
33 | 7.00 to 8.00 | CCC(C)NC(=O)COc1cccc(-c2nc3c(c(Nc4ccc(-c5cn[nH]c5)cc4)n2)COCC3)c1 (stereo not drawn) [Example 41, 2-(3-(4-((4-(1H-pyrazol-4-yl)phenyl)amino)-7,8-dihydro-5H-pyrano[4,3-d]pyrimidin-2-yl)phenoxy)-N-(sec-butyl)acetamide]
